# Test results reported in article PMC9775322, “An Integrated Analysis of Mechanistic Insights into Biomolecular Interactions and Molecular Dynamics of Bio-Inspired Cu(II) and Zn(II) Complexes towards DNA/BSA/SARS-CoV-2 3CL^pro by Molecular Docking-Based Virtual Screening and FRET Detection” (Biomolecules, 2022).
# Key:
# Mucor indicus = test: Agar disc diffusion antifungal test; conditions: for diameter of clear zone inhibition / Inhibition %: J; for diameter of clear zone inhibition: 20 µL of 100 µM on 6 mm disc, Control (DMSO) = 6 mm; for Inhibition %: (T–C)/T × 100
# EB–DNA = test: Ethidium bromide displacement assay by fluorescence spectral titration; format: binding, calf; conditions: Kapp=KEB[EB]/[compound], KEB = 10^7 M^−1 at 50 µM EB; compound concentration at 50% reduction of EB fluorescence
# BSA [1] = target: T1, BSA (Bos taurus, UniProt P02769); test: BSA binding by fluorescence emission titration; design: species or system bovine; conditions: for KSV (Stern-Volmer binding constant), BSA binding, Method–I / Kass (association binding constant), BSA binding, Stern–Volmer Method–II / n (number of binding sites), BSA binding, Stern–Volmer Method–II: BSA emission 350 nm; for Kq (bimolecular quenching rate constant), BSA binding, Stern–Volmer Method–I: Kq=KSV/τ0, τ0 = 10^−8 S, BSA emission 350 nm (λex 278 nm); for P (ratio of fluorescence quantum efficiency), BSA binding: intercept of F/F0 vs 1/[BSA]; for ΔGb°, BSA binding, Stern–Volmer Method–II: −RT ln Kass, T = 298 K
# T1 construct: purchased Sigma Aldrich
# T1 sequence (P02769 25-607): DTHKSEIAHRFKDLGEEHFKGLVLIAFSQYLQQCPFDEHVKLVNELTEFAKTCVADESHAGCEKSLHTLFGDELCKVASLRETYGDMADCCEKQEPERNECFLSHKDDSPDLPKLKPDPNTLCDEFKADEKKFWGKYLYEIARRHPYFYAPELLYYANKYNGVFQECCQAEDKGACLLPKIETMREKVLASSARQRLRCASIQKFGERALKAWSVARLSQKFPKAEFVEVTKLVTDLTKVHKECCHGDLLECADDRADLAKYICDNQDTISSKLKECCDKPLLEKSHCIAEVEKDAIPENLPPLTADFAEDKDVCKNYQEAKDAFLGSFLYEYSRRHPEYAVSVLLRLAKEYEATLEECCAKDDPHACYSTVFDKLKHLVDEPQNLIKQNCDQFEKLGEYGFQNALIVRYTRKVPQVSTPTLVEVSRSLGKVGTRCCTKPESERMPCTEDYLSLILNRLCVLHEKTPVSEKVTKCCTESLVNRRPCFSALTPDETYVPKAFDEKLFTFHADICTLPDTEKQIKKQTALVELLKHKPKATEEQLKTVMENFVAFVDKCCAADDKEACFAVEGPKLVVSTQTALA
# Method: The DNA/BSA binding properties were acquired from the emission spectral titration with the supporting of the JASCO FP-6300 spectrofluorometer between the 200 and 800 nm regions. It is additional evidence for the complexes’ manner of DNA binding. While DNA (200 µM) was present or absent, we vigilantly monitored the intensity variations between 610 nm and 510 nm during the initial emission and excitation of EB [27]. Correspondingly, the emission titrations for BSA interaction with different concentrations between 2.5 μM and 25 μM for all samples were conducted in a Tris-HCl buffer solution (pH: 7.4) between the regions of 300 nm and 400 nm. […]
# experiments were measured for BSA interaction in the range of 300 –400 nm, using a fluorescence cuvette with a path length of 1 cm. all test compounds have no substantial fluorescence emission rate in any of the above ranges in Tris-HCl buffer solution (pH=7.2).
# Therefore, BSA interaction tests are not impaired in the interaction with the complexes [ 28].
# In the experiment, the emission of BSA solution (25 µM) in 50 mM Tris –HCl /1 mM NaCl […]
# While raising the test compound ’s concentration (0-25 µM), the intensity of the BSA decreases due to static quenching in the generation of ground state BSA – complex adduct. The observations of the BSA molecule at the excitation wavelength (278 nm) and at the emission wavelength (350 nm) that both of […]
# Fcorr = Fobs × e[(Aex× dex) + (Aem× dem)]/ 2 = Fobs × e(Aex + Aem)/ 2 (S12) Fcorr and F obs are represented as the IFE-corrected emission and observed (uncorrected) emission intensities, respectively. d ex and d em are denoted as the cuvette path lengths in the […]
# excitation and emission directions, respectively. Also, the alteration in absorbance (OD) at the excitation and fluorescence wavelengths, respectively, is sometimes referred to as A ex and […]
# F = 1+KSV [Q] = 1+ Kq τ0 (S13)
# Where [Q] is represented as the sample concentration (quencher), the emission intensities F 0 and F are those in the […] of the quencher, respectively.
# F ) = log Kass + nlog [Q] (S14)
# KEB[EB] = Kapp[compound] (S15)
# ∆F = (F 0–F), Equation (16) was utilized to examine the Lineweaver –Burk binding constant (KLB) from the linear regression plot of 1/(F0–F) vs 1/[Q]. […]
# γ =(F0–F)/F0, CF is denoted as the concentration of sample alone, the linear regression plot of (γ/CF) vs γ was employed to support equation (17), which was used to determine the values of KSA and n, respectively.
# 2.2.6. FRET calculation by Förster’s theory
# Calculating FRET (Fluorescence Resonance Energy Transfer) is a crucial approach in determining the critical distance (r) between donor (BSA) and acceptor (test compound) molecules, in which the binding affinity between the BSA-complex systems could be evalued according to Förster’s theory. The overlap of the emission spectrum of the donor (BSA) and the absorption spectrum of the acceptor (compound) describes that the acceptor (compound) group may get excited as a result of the excited donor's (BSA) energy being lost to the ground
# BSA [2] = target: T1, BSA; test: BSA binding by UV–vis absorption titration; design: species or system bovine; conditions: for Δλ (nm) (blue shift of BSA band at 278 nm) / Chromism (% H) (hyperchromism): BSA 25 μM, compound 0–25 μM; for Chromism (% H) (hyperchromism): 278 nm; for Binding Constant Kapp by BH Method: BSA, UV–Vis titration; for ΔGb°: −RT ln Kapp, T = 298 K
# Method: UV–vis spectral titrations were performed with a 25 μM concentration of BSA at room temperature with a 5 mM Tris-HCl/50 mM NaCl buffer solution (pH: 7.4). When the sample concentrations (0–25 μM) increased in the same BSA concentration solution, the alteration in the absorption band at 278 nm was continuously monitored.
# 2.2.8. UV-Vis absorption titrations for the BSA binding assay
# The test compound concentrations (0 –25 μM) were varied during the electronic absorption titrations, which were conducted at a fixed BSA concentration (25 μM) in aqueous media (pH = 7.2) at 25 °C. The property of BSA is also confirmed by the observation of a strong absorption band in the UV region at 278 nm. […] The increment of the test compound causes a gradual increase in the BSA absorption band, which leads to the […]
# owing to non-covalent interaction of the test compound with BSA [33].
# ∆Amax = (A∞ - A0), ∆A = (Ax - A0), A0 , Ax and A∞ are denoted as the absorbance of free BSA, the absorbance of BSA in the increment concentrations of the compound, and the absorbance value of the fully bound form of bovine serum albumin with substance, respectively.
# Staphylococcus Aureus = test: Agar disc diffusion antibacterial test; conditions: for diameter of clear zone inhibition / Inhibition %: F, (+) Staphylococcus Aureus; for diameter of clear zone inhibition: 20 µL of 100 µM on 6 mm disc, Control (DMSO) = 6 mm; for Inhibition %: (T–C)/T × 100
# Bacillus cereus = test: Agar disc diffusion antibacterial test; conditions: for diameter of clear zone inhibition / Inhibition %: G, (+) Bacillus cereus; for diameter of clear zone inhibition: 20 µL of 100 µM on 6 mm disc, Control (DMSO) = 6 mm; for Inhibition %: (T–C)/T × 100
# Pseudomonas aeruginosa = test: Agar disc diffusion antibacterial test; conditions: for diameter of clear zone inhibition / Inhibition %: D, (-) Pseudomonas aeruginosa; for diameter of clear zone inhibition: 20 µL of 100 µM on 6 mm disc, Control (DMSO) = 6 mm; for Inhibition %: (T–C)/T × 100
# Escherichia coli = test: Agar disc diffusion antibacterial test; conditions: for diameter of clear zone inhibition / Inhibition %: A, (-) Escherichia coli; for diameter of clear zone inhibition: 20 µL of 100 µM on 6 mm disc, Control (DMSO) = 6 mm; for Inhibition %: (T–C)/T × 100
# [3] = test system: Chromo bacterium violaceum; test: Agar disc diffusion antibacterial test; conditions: for diameter of clear zone inhibition / Inhibition %: C, (-) Chromo bacterium violaceum; for diameter of clear zone inhibition: 20 µL of 100 µM on 6 mm disc, Control (DMSO) = 6 mm; for Inhibition %: (T–C)/T × 100
# [4] = Nitric oxide scavenging assay; format: biochemical; conditions: 546 nm
# [5] = read-out: diameter of clear zone inhibition
SMILES,Inhibition % (Mucor indicus) [%],Kapp (apparent binding constant) (EB–DNA) [M⁻¹],"KSV (Stern-Volmer binding constant), BSA binding, Method–I (BSA [1]) [M⁻¹]","n (number of binding sites), BSA binding, Stern–Volmer Method–II (BSA [1])","Kq (bimolecular quenching rate constant), BSA binding, Stern–Volmer Method–I (BSA [1]) [M⁻¹ s⁻¹]","P (ratio of fluorescence quantum efficiency), BSA binding (BSA [1])","ΔGb°, BSA binding, Stern–Volmer Method–II (BSA [1])",Δλ (nm) (blue shift of BSA band at 278 nm) (BSA [2]),Chromism (% H) (hyperchromism) (BSA [2]) [%],ΔGb° (BSA [2]) [kJmol^−1],Inhibition % (Staphylococcus Aureus) [%],Inhibition % (Bacillus cereus) [%],Inhibition % (Pseudomonas aeruginosa) [%],Inhibition % (Escherichia coli) [%],Inhibition % [3] [%],"% Inhibition, nitric oxide ([4]; 40 µM) [%]","% Inhibition, nitric oxide ([4]; 80 µM) [%]","% Inhibition, nitric oxide ([4]; 120 µM) [%]","% Inhibition, nitric oxide ([4]; 160 µM) [%]","% Inhibition, nitric oxide ([4]; 200 µM) [%]",further results
"[Cu+2].[O-]c1ccccc1N=Cc1ccc(N2CCOCC2)cc1.[O-]c1ccccc1N=Cc1ccc(N2CCOCC2)cc1.c1cnc2c(c1)ccc1cccnc12 [(1b), [Cu^II(L)2(phen)]]",40,1e+07,95640,1.021,9.564e+12,0.322,–27.71 kJM^−1,8,64.70,−25.9330,45,40,33,33,45,18.03,25.43,35.67,42.86,52.29,"diameter of clear zone inhibition (Mucor indicus): 10 mm; Kass (association binding constant), BSA binding, Stern–Volmer Method–II (BSA [1]): 71990 M⁻¹; Binding Constant Kapp by BH Method (BSA [2]): 35140 M⁻¹; diameter of clear zone inhibition (Staphylococcus Aureus): 11 mm; diameter of clear zone inhibition (Bacillus cereus): 10 mm; diameter of clear zone inhibition (Pseudomonas aeruginosa): 9 mm; diameter of clear zone inhibition (Escherichia coli): 9 mm; diameter of clear zone inhibition [3]: 11 mm; % Inhibition, nitric oxide ([4]; 240 µM): 66.21%"
"[O-]c1ccccc1N=Cc1ccc(N2CCOCC2)cc1.[O-]c1ccccc1N=Cc1ccc(N2CCOCC2)cc1.[Zn+2].c1cnc2c(c1)ccc1cccnc12 [(2b), [Zn^II(L)2(phen)]]",40,4.804e+06,79350,1.009,7.935e+12,0.285,–27.25 kJM^−1,8,62.16,−24.7590,45,45,25,40,45,14.67,22.43,29.42,38.82,45.53,"diameter of clear zone inhibition (Mucor indicus): 10 mm; Kass (association binding constant), BSA binding, Stern–Volmer Method–II (BSA [1]): 59840 M⁻¹; Binding Constant Kapp by BH Method (BSA [2]): 21878 M⁻¹; diameter of clear zone inhibition (Staphylococcus Aureus): 11 mm; diameter of clear zone inhibition (Bacillus cereus): 11 mm; diameter of clear zone inhibition (Pseudomonas aeruginosa): 08 mm; diameter of clear zone inhibition (Escherichia coli): 10 mm; diameter of clear zone inhibition [3]: 11 mm; % Inhibition, nitric oxide ([4]; 240 µM): 59.88%"
"Oc1ccccc1N=Cc1ccc(N2CCOCC2)cc1 [(HL), 2-(4-morpholinobenzylideneamino)phenol]",45,4.2e+06,26390,0.958,2.639e+12,0.225,–23.86 kJM^−1,2,47.79,−22.3387,33,33,25,33,45,11.42,18.26,24.28,33.21,40.53,"zone of inhibition at 100 µM (Mucor indicus; [5]): 11 mm; zone of inhibition at 100 µM (Staphylococcus Aureus; Staphylococcus aureus, read-out: diameter of clear zone inhibition): 9 mm; zone of inhibition at 100 µM (Bacillus cereus; Bacillus cereus, read-out: diameter of clear zone inhibition): 9 mm; zone of inhibition at 100 µM (Pseudomonas aeruginosa; Pseudomonas aeruginosa, read-out: diameter of clear zone inhibition): 8 mm; zone of inhibition at 100 µM (Escherichia coli; Escherichia coli, read-out: diameter of clear zone inhibition): 9 mm; zone of inhibition at 100 µM [3, 5]: 11 mm; % Inhibition, nitric oxide ([4]; 240 µM): 51.62%"
